Experimental data taken from US20070105939A1, “Mesylate salt of 5-(2-dimethylaminoethoxy)-1H-indole-2-carboxylic acid [3-(4-hydroxycarbamoylphenyl)prop-2-ynyl]amide” (Pharmacyclics, Inc., priority 2005, published 2007).
Read-outs that look alike come from different tables or passages of the source.

What was measured:
[1] = Solubility (background statement)
[2] = Oral bioavailability (background statement); conditions: have to be administered parenterally for therapeutic effect
[3] = tested on: histone deacetylase enzyme H1; conditions: disclosed in PCT publication WO 2004/019174; cited from earlier work
[4] = in vivo

Compound	solubility [1]	oral bioavailability [2]	inhibition of histone deacetylase enzyme H1 [3]	oral bioavailability [4]
CN(C)CCOc1ccc2[nH]c(C(=O)NCC#Cc3ccc(C(=O)NO)cc3)cc2c1.Cl [hydrochloride salt, 5-(2-dimethylaminoethoxy)-1H-indole-2-carboxylic acid [3-(4-hydroxy-carbamoylphenyl)prop-2-ynyl]amide hydrochloride]	poor	poor	inhibitors	–
CN(C)CCOc1ccc2[nH]c(C(=O)NCC#Cc3ccc(C(=O)NO)cc3)cc2c1 [5-(2-dimethylaminoethoxy)-1H-indole-2-carboxylic acid [3-(4-hydroxy-carbamoylphenyl)prop-2-ynyl]amide]	–	–	inhibitors	poor
